Assay results reported in patent EP4682146A1, “COMPOSITION INCLUDING NOVEL PYRIDOINDOLE DERIVATIVE COMPOUND AS ACTIVE INGREDIENT FOR PREVENTION OR TREATMENT OF NEURODEGENERATIVE DISEASES” (Neurotarge Co., Ltd., priority 2023, dated 2024).

Key:
[1] = tested on: TtgA / PTtgR phloretin-inducible gene expression system; assay: Phloretin-regulated EGFP expression (pTK269: PCAG-TtgA and pTK274: PTtgR-EGFP) in HEK293T; type: cell-based, Human; settings: HEK293T co-transfected with pTK269 and pTK274, 0 - 50 µM phloretin, 48 hours
Procedure: • FIG. 1 is a fluorescence microscopy image of the HEK293T cell line transfected with EGFP-fused Tau (pTK231: P(CMV)-Tau-EGFP) and Synaptogyrin 3 (pTK233:P(CMV)-EGFP-Synaptogyrin 3), showing the expression of both proteins 48 hours after transfection. • FIG. 2a is a schematic of the Protein Complementary Assay (PCA) process using the split luciferase method. Split luciferase consists of two fragments of the luciferase enzyme: a small bit (sBit) and a large bit (Lbit). […] Therefore, by fusing each fragment of the split luciferase to Tau and Synaptogyrin3, luciferase activity may be induced as a result of the interaction between Tau and Synaptogyrin3. […] The system includes a synthetic transcriptional activator, TtgA, and a synthetic promoter, PTtgR, prepared based on the flavonoid-regulated TtgR operon of the Pseudomonas putida DOT-T1E strain. In the absence of phloretin, TtgA binds to PTtgR and activates transcription (without phloretin), while in the presence of phloretin, TtgA dissociates from DNA and transcription is not activated (with phloretin). […] In the stable cell line HEK293T-TK252 expressing Lbit-Tau and sBit-Synaptogyrin3, expression of Tau protein to which split luciferase is not fused, can lead to a decrease in luciferase signal. […]

[2] = tested on: Tau-Synaptogyrin3 interaction; assay: Tau competition assay with phloretin-inducible Tau expression in HEK293T-TK252 clones, luciferase activity; type: cell-based, Human; settings: clone 1E2 co-transfected with pTK269 and pTK285, 0, 10 and 50 µM phloretin, 48 hours
Procedure: • FIG. 1 is a fluorescence microscopy image of the HEK293T cell line transfected with EGFP-fused Tau (pTK231: P(CMV)-Tau-EGFP) and Synaptogyrin 3 (pTK233:P(CMV)-EGFP-Synaptogyrin 3), showing the expression of both proteins 48 hours after transfection. • FIG. 2a is a schematic of the Protein Complementary Assay (PCA) process using the split luciferase method. Split luciferase consists of two fragments of the luciferase enzyme: a small bit (sBit) and a large bit (Lbit). […] Therefore, by fusing each fragment of the split luciferase to Tau and Synaptogyrin3, luciferase activity may be induced as a result of the interaction between Tau and Synaptogyrin3. […] The system includes a synthetic transcriptional activator, TtgA, and a synthetic promoter, PTtgR, prepared based on the flavonoid-regulated TtgR operon of the Pseudomonas putida DOT-T1E strain. In the absence of phloretin, TtgA binds to PTtgR and activates transcription (without phloretin), while in the presence of phloretin, TtgA dissociates from DNA and transcription is not activated (with phloretin). […]
Live cell luciferase assay: Live cell luciferase activity was measured using NanoGlo® Live Cell Assay System (Cat# N2012. Promega, WI, USA), according to manufacturer's instruction. […]

## O=C(CCc1ccc(O)cc1)c1c(O)cc(O)cc1O [phloretin]
[1]
  EGFP signal, difference between 0 and 50 µM treatment: 4 fold
[2]
  luciferase activity, difference between 0 and 50 µM treatment: 2 fold
